Measured values published in the supplement of paper PMC10307832.

What was measured:
VX-702 + Foretinib = compound: NC(=O)c1ccc(N(C(N)=O)c2c(F)cccc2F)nc1-c1ccc(F)cc1F [VX-702] + COc1cc2c(Oc3ccc(NC(=O)C4(C(=O)Nc5ccc(F)cc5)CC4)cc3F)ccnc2cc1OCCCN1CCOCC1 [Foretinib] (partner 0.25 µM); experiment: relative viability (nuclei count vs DMSO), 5 days (fraction); higher = more cells survive
How it was run: (§1)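 Lung cancer cell lines in 1536-well plates got either a single drug or a fixed anchor-drug dose together with five library-drug doses (not always all listed) in √10 steps, by pin tool, on the day after seeding. Nuclei were counted after 5 days, and relative viability is the treated-to-vehicle ratio of nuclei counts. Values are medians of duplicate plates.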

Dabrafenib + Navitoclax = compound: CC(C)(C)c1nc(-c2cccc(NS(=O)(=O)c3c(F)cccc3F)c2F)c(-c2ccnc(N)n2)s1 [Dabrafenib] + CC1(C)CCC(c2ccc(Cl)cc2)=C(CN2CCN(c3ccc(C(=O)NS(=O)(=O)c4ccc(N[C@H](CCN5CCOCC5)CSc5ccccc5)c(S(=O)(=O)C(F)(F)F)c4)cc3)CC2)C1 [Navitoclax] (partner 0.5 µM); experiment: as above
How it was run: as §1

Row | Cell Line | relative viability (VX-702 + Foretinib; first compound 0.02 µM) | relative viability (VX-702 + Foretinib; first compound 0.2 µM) | relative viability (VX-702 + Foretinib; first compound 0.6325 µM) | relative viability (VX-702 + Foretinib; first compound 2 µM) | relative viability (Dabrafenib + Navitoclax; first compound 0.003 µM) | relative viability (Dabrafenib + Navitoclax; first compound 0.009487 µM) | relative viability (Dabrafenib + Navitoclax; first compound 0.03 µM) | relative viability (Dabrafenib + Navitoclax; first compound 0.09487 µM) | relative viability (Dabrafenib + Navitoclax; first compound 0.3 µM)
1 | 201T | 0.943 | 0.987 | 1.05 | 1.07 | 1.19 | 1.18 | 1.15 | 1.15 | 1.26
2 | A549 | 1.02 | 0.975 | 0.92 | 1.07 | 1.09 | 1.26 | 1.28 | 1.18 | 1.2
3 | A-427 | 1.06 | 1.03 | 0.97 | 1.08 | – | 0.954 | 0.91 | 0.803 | 0.888
4 | ABC-1 | 1.24 | 0.968 | 0.859 | 1.33 | – | – | – | – | –
5 | BEN | 0.73 | 0.556 | 0.57 | 0.876 | – | 0.0803 | – | 0.0599 | 0.0801
6 | CAL-12T | 1.05 | 1.09 | 1.01 | 1.28 | 1.28 | 1.32 | 1.4 | 1.3 | 1.27
7 | COR-L23 | 1.04 | 1 | 0.995 | 1.38 | 0.948 | 0.997 | 0.908 | 0.927 | 0.894
8 | COR-L 105 | 1.02 | 0.838 | 1.14 | 1.3 | 0.73 | 0.856 | 0.649 | 0.875 | 0.744
9 | Calu-6 | 0.975 | 0.902 | 0.896 | 0.971 | 0.83 | 0.799 | 0.77 | 0.604 | 0.587
10 | ChaGo-K-1 | 0.867 | 0.892 | 0.893 | 0.901 | – | 0.891 | 0.966 | 0.986 | 1.06
11 | EBC-1 | 0.107 | 0.111 | 0.0889 | 0.0899 | 0.369 | 0.373 | 0.32 | 0.145 | 0.221
12 | EKVX | 0.754 | 0.432 | 0.49 | 0.685 | 0.778 | 1.01 | 0.961 | 0.894 | 1.11
13 | EMC-BAC-2 | 0.597 | 0.93 | 0.999 | 1.06 | 1.27 | 1.19 | 0.998 | 1.1 | 1.19
14 | EPLC-272H | 0.6 | 0.659 | 0.667 | 0.817 | – | 1.39 | 0.997 | 0.875 | 0.824
15 | H3255 | 1.01 | 0.781 | 0.89 | 0.855 | 0.375 | 0.669 | 0.548 | 0.441 | 0.566
16 | HARA | 0.852 | 0.763 | 0.908 | 0.814 | 1.14 | 1.15 | 1.07 | 1.07 | 1.12
17 | HCC-15 | 0.952 | 0.915 | 0.99 | 0.793 | 0.728 | 0.787 | 0.734 | 0.694 | 0.833
18 | HCC-44 | – | – | – | – | 0.939 | 1.04 | 0.939 | 0.843 | 1.04
19 | HCC-78 | 0.523 | 0.527 | 0.59 | 0.479 | – | 0.908 | 0.702 | 0.795 | 0.869
20 | HCC-366 | 0.896 | 0.873 | 0.955 | 0.922 | – | 1.02 | 0.963 | 1.05 | 1.11

Row | Cell Line | relative viability (VX-702 + Foretinib; first compound 0.02 µM) | relative viability (VX-702 + Foretinib; first compound 0.2 µM) | relative viability (VX-702 + Foretinib; first compound 0.6325 µM) | relative viability (VX-702 + Foretinib; first compound 2 µM) | relative viability (Dabrafenib + Navitoclax; first compound 0.003 µM) | relative viability (Dabrafenib + Navitoclax; first compound 0.009487 µM) | relative viability (Dabrafenib + Navitoclax; first compound 0.03 µM) | relative viability (Dabrafenib + Navitoclax; first compound 0.09487 µM) | relative viability (Dabrafenib + Navitoclax; first compound 0.3 µM)
21 | HCC-827 | 1.07 | 0.988 | 1.07 | 0.787 | 0.997 | 1.02 | 0.97 | 1.01 | 1.01
22 | HOP-62 | 1.18 | 1.19 | 1.25 | 1.33 | 0.89 | 1.01 | 1.02 | 0.718 | 1.02
23 | IA-LM | 1.21 | 1.1 | 1.2 | 1.15 | 0.901 | 0.657 | 0.649 | 0.304 | 0.172
24 | LC-2-ad | 0.765 | 0.958 | 0.838 | 0.99 | 0.558 | 0.425 | 0.381 | 0.417 | 0.438
25 | LCLC-97TM1 | 0.836 | 0.923 | 0.938 | 0.991 | – | 0.368 | 0.536 | – | 0.427
26 | LCLC-103H | 0.71 | 0.702 | 0.534 | 0.881 | – | – | – | – | –
27 | LK-2 | 0.985 | 1.21 | 1.08 | 1.11 | 1.09 | 0.985 | 0.662 | 0.938 | 0.936
28 | LOU-NH91 | 0.94 | 0.973 | 0.994 | 0.704 | – | 0.848 | 0.741 | 0.719 | 0.664
29 | LU99A | 0.871 | 0.677 | 0.786 | 0.721 | 0.928 | 0.722 | 0.792 | 0.896 | 0.753
30 | LXF-289 | 1.04 | 0.962 | 0.958 | 0.98 | 0.95 | 0.931 | 1.04 | 0.934 | 0.998
31 | NCI-H23 | 0.961 | 1.03 | 1.15 | 1.21 | – | 0.855 | 0.755 | 0.795 | 0.957
32 | NCI-H322M | 0.964 | 0.875 | 0.932 | 1 | – | 1.38 | – | 1.12 | 1.17
33 | NCI-H358 | 0.692 | 0.598 | 0.663 | 0.936 | – | – | – | – | –
34 | NCI-H441 | 0.955 | 0.774 | 0.984 | 1.12 | – | 0.547 | 0.461 | 0.543 | 0.465
35 | NCI-H460 | 1.06 | 0.998 | 1.12 | 1.08 | 1.17 | 1.14 | 1.26 | 0.998 | 1.06
36 | NCI-H520 | 0.876 | 0.73 | 0.607 | 0.744 | 1.3 | 1.11 | 0.985 | 1.07 | 0.936
37 | NCI-H596 | 0.79 | 0.82 | 1.11 | 0.992 | 0.733 | 0.996 | 0.764 | 1 | 0.921
38 | NCI-H647 | 1.22 | 1.08 | 1 | 1.4 | – | 1.07 | – | 1.08 | 1.11
39 | NCI-H650 | 1.01 | – | 1.11 | 1.25 | – | – | – | – | –
40 | NCI-H661 | 1.11 | 1.08 | 1.12 | 1.1 | – | – | – | – | –
